In patent publication US20030157072A1, “Nusap, a novel gene encoding a tissue-specific nuclear protein, useful as a diagnostic tool and therapeutic agent” (priority 2003, published 2003):

What was measured:
nusap gene expression = assay: Northern analysis of nusap gene expression in MC3T3-E1 cells; assay type: cell-based, mouse
Description: FIG. 2 represents a Northern blot analysis showing nusap gene expression in sub-confluent cultures of MC3T3-E1 cells after treatment with vehicle or 1,25(OH)2D3 (10^−8 M) for 24 hours. The size (kb) of the three transcripts is indicated.
(§1) Northern blot analysis of nusap expression in hydroxyurea treated (1 mM) MC3T3-E1 cells. Cells were harvested at the indicated time points (minutes) after treatment. The different cell cycle phases were assigned based on the RNA levels of histone H4, a S-phase marker. The blots were hybridized with the following cDNA probes: human histone H4, pFO002; and a 0.8 kb NuSAP BglII/AspI restriction fragment. The 18S cDNA probe was used as a control to assess equal loading.
(§2) Growth arrest of MC3T3-E1 cells by serum starvation was accomplished by changing complete medium (10% FCS) to medium containing 0.1% FCS in subconfluent cultures. The quiescent cells were released from growth arrest by adding complete medium (10% FCS), whereafter cells were harvested at the indicated time points.
(§3) Total cellular RNA was extracted from cell cultures using TriZol LS. Foetal mice and soft tissues from adult mice (C57BL/6; 8 wk old) were directly homogenized in TriZol (GIBCO BRL), while femurs and tibias were ground to a fine powder prior to homogenization, followed by total cellular RNA extraction. […]

[1] = test system: histone H4 gene expression; assay: Northern analysis of histone H4 RNA levels in MC3T3-E1 cells; assay type: cell-based, mouse; conditions: 1 mM, within 45 minutes of treatment
Description: as §1, §2, §3

[2] = test system: DNA synthesis (BrdUrd incorporation); assay: BrdUrd immunostaining in transfected COS-1 cells; assay type: cell-based; conditions: 20 μg/ml for several hours
Description: […] […] C is the merger of A and B. In some cells, BrdUrd incorporation is distinctly aggregated (E), and these sites overlap with NuSAP-GFP (D) and F (which is the merger of D and E).
Alternatively, cells were fixed and permeabilized in 0.4% glutaraldehyde/0.5% Triton X100/PBS for 15 minutes at room temperature. After incubation in 0.5 mg NaBH4/ml PBS (10 minutes), and blocking in 5% BSA/PBS (10 minutes), cells were incubated with primary antibodies for 1 h. Cells were washed and after incubation with 50% normal serum (Dako) (10 minutes), cells were incubated with secondary antibodies conjugated to Alexa-488 or -546 dye (Molecular Probes) (1 hour) and finally mounted using Dako mounting medium. Antibodies and normal serum were diluted in 0.5% Tween20/PBS. Analysis was done on a Nikon inverted microscope Diaphot 300 (Plan Apo 60/1.40 oil) connected to a Bio-Rad MRC1024 confocal microscope and images were captured by LaserSharp (version 3.2) and processed using Adobe Photoshop 5.5 (Adobe Systems Inc., San Jose Calif.). The images showing a-tubulin localization were taken using a Leitz DM microscope and were recorded using a cooled charge-coupled device camera (Photometrics Inc., Tucson, Ariz.) and IP-Lab software. […]

[3] = test system: mouse osteoblastic MC3T3-E1 cells; assay: [3H]-thymidine incorporation, proliferation of MC3T3-E1 cells; assay type: cell-based; conditions: varying doses, 24 and 48 h, versus vehicle
Description: (a) The proliferation of MC3T3-E1 cells was analyzed after treatment for 24 and 48 h with varying doses of 1,25(OH)2D3 by monitoring [^3H]-thymidine incorporation. Data represent mean±SD of six replicates of a representative experiment. Values of vehicle (ethanol) treated cells were taken as 100%. (*P<0.001; versus vehicle, t test) All culture reagents, unless otherwise mentioned, were obtained from GIBCO BRL (Life Technologies, Grand Island, N.Y.). Murine osteoblast-like MC3T3-E1 cells (Sudo et al. (1983). J. Cell Biol. 96:191-198) were purchased from Riken Cell Bank (H. Kodama, Japan), and maintained in αMEM supplemented with 10% heat-inactivated FCS and penicillin-streptomycin (100 U/ml and […], respectively). Sub-confluent MC3T3-E1 cell cultures are defined to be in the proliferation state, while confluent and mineralising cells have entered the differentiation stage. COS-1 and NIH3T3 cells (American Type Culture Collection, Manassas, Va.) were cultured respectively in Dulbecco's modified eagle medium (hereinafter DME) and DME-F12, plus 10% heat-inactivated FCS. For NIH3T3 cells, the medium was supplemented with glutamax (2 mM) and glucose (4.5 g/l). Cultures were grown at 37° C. in a humidified atmosphere containing 5% CO2 in air. […] Significant effects were already observed after 24 hours and this inhibition became more pronounced with increasing time. […]

[4] = test system: microtubules (α-tubulin) / GFP-tagged NuSAP; assay: Immunofluorescence localization of GFP-tagged NuSAP in transfected COS-1 cells; conditions: for distribution of NuSAP in the nucleoli during interphase: COS-1 cells in interphase; for distribution of NuSAP and α-tubulin in mitotic cells: mitotic COS-1 cells, nocodazole 10 μM for 1 hour, taxol 5 μM for 1 hour

NC(=O)NO [hydroxyurea]
nusap gene expression (RNA level) (nusap gene expression; MC3T3-E1 cells, 1 mM, within 45 minutes of treatment): markedly down-regulated | histone H4 RNA levels [1]: undetectable

C[C@@]1(CO)[C@H](O)CC[C@@]2(C)[C@H]1CC[C@H]1C[C@@H]3C[C@@]12CC[C@]3(O)CO [aphidicolin]
immunostaining for BrdUrd [2]: loss of immunostaining for BrdUrd

C=C1/C(=C\C=C2/CCC[C@]3(C)[C@@H]([C@H](C)CCCC(C)(C)O)CC[C@@H]23)C[C@@H](O)C[C@@H]1O [1α,25(OH)2D3, 1α,25-dihydroxyvitamin D3]
proliferation measured by [3H]-thymidine incorporation [3]: inhibited the proliferation of these cells | nusap gene expression (Northern analysis) (nusap gene expression; sub-confluent MC3T3-E1 cells, 10^-8 M for 24 hours versus vehicle): inhibition of nusap gene expression

CC(=O)O[C@H]1C(=O)[C@@]2(C)[C@H]([C@H](OC(=O)c3ccccc3)[C@]3(O)C[C@H](OC(=O)[C@H](O)[C@@H](NC(=O)c4ccccc4)c4ccccc4)C(C)=C1C3(C)C)[C@]1(OC(C)=O)CO[C@@H]1C[C@@H]2O [taxol]
distribution of NuSAP in the nucleoli during interphase [4]: Neither nocodazole nor taxol treatment affected | distribution of NuSAP and α-tubulin in mitotic cells [4]: resulted in NuSAPs translocation to these structures

COC(=O)Nc1nc2ccc(C(=O)c3cccs3)cc2[nH]1 [nocodazole]
distribution of NuSAP in the nucleoli during interphase [4]: Neither nocodazole nor taxol treatment affected | distribution of NuSAP and α-tubulin in mitotic cells [4]: NuSAP and α-tubulin redistributed throughout the cell
